Assay results: article PMC6739215, “One-bead one-compound combinatorial library derived targeting ligands for detection and treatment of oral squamous cancer” (Oncotarget, 2019)
Entries after “also recorded” stand apart in the source; their conditions may differ. Where two headings read alike, the source gives them in different places.

Key:
[1] = tested on: normal human keratinocyte (NHK) cells; assay: MTS assay evaluation of cytotoxicity; format: cell-based; conditions: 48 hours treatment, up to 50 μM
Description: MTS assay was used to evaluate the potential cytotoxicity of peptides against normal human keratinocytes. Briefly, 2 × 10^3 NHK cells were seeded in 96 well tissue culture plates and analysis was performed 48 hours after treatment with LLY12 and LLY13 by adding 20 μL per well of the tetrazolium salt MTS, 3-(4,5-dimethylthiazol-2-yl)-5-(3-carboxymethoxyphenyl)-2-(4-sulfophenyl)-2H-tetrazolium for 2 hours at 37° C. The 96 well plates were read on a VERSA max tunable microplate reader at 490 nm. Similar to the MTT assay, the reduction of MTS solutions to formazan reflects mitochondrial activity and cell viability by proxy.

[2] = tested on: human oral cancer cells HSC-3; assay: Flow cytometry study of binding affinity of ligands; conditions: HSC-3 cells; for Kd: biotinylated peptide followed by streptavidin-PE
Description: Flow cytometry was employed to compare the binging affinity of LLY12 and LLY13 [25–27]. Confluent tumor cells (80–90%) were dissociated with 0.05% trypsin-EDTA and neutralized with culture medium. After washed three times with F10 buffer, containing PBS with 10% FBS and 1 mM MnCl2 , the human oral cancer cells HSC-3 (3 × 10^5) were added with different concentration of biotinylated LLY12 and LLY13 in 50 μL F10 media for 30 minutes on ice. Then each sample was washed three times with 1 mL PBS containing 1% FBS. Samples thereafter were incubated with a 1:500 dilution of streptavidin-phycoerythrin (1 mg/mL) for 30 min on ice followed by a single wash with 1 mL of PBS containing 1% FBS. Finally, the samples in PBS were analyzed by flow cytometry and the mean fluorescence intensity (MFI) was acquired for each individual sample.

[3] = tested on: HSC-3 cells and MOK-101 cells; assay: Peptide induced cell uptake assay (confocal); format: cell-based, human; conditions: HSC-3 and MOK-101 cells, up to 3 hours, cytoplasm and nucleus
Description: Peptide induced cell uptake assay was used to investigate endocytic uptake of the targeting peptide by live OSC cells. Biotinylated LLY13 was pre-incubated (50 μM) with streptavidin-Alexa488 (1mg/mL) for 2 hours at room temperature and then at 4° C overnight to form the biotin-peptides/streptavidin-Alexa488 complex. Oral cancer cells of HSC-3 cells and MOK-101 were seeded in chamber slides at a concentration of 2.3 × 10^4 cells. After 60% confluency, biotin-peptides-streptavidin-Alexa488 complexes were added at different time intervals (30 min, one hour, two hours and three hours). By the end of experiments, 1:2000 dilution of DAPI was added to the specimens. Peptide induced endocytic uptake of cancer cells was observed under confocal laser scanning microscope.

Row | Substance | cytotoxicity (MTS assay) [1] | Kd ([2]; read-out: Kd value) [nM] | Bmax value (maximum binding capacity) ([2]; flow cytometry) | Bmax (maximum binding) ([2]; flow cytometry, Figure 4) [AU] | cellular uptake (internalization) by live OSC cells [3] | Kd ([2]; Figure 4, read-out: Kd) [nM] | maximum binding capacity in comparison to LLY12 ([2]; flow cytometry)
1 | cyclic cdG (Nle) G(Hyp) Lc [LLY12] | no obvious cytotoxicity; also recorded: not cytotoxic | 870 | 248 | 248 | not observed |  | 
2 | cyclic cdGYG (Hyp) Wc [LLY13] | no obvious cytotoxicity; also recorded: not cytotoxic | 1270 | 764 | 764 |  | 1230 | around 3 fold
